Results as given in patent US20260206755A1, “COMPOUNDS AND COMPOSITIONS HAVING KNOCK-DOWN OR BLOOD FEED INHIBITION ACTIVITY AGAINST INSECT PESTS” (priority 2017, published 2026).
Like-named read-outs stand apart in the source and are kept apart here.

Test system: Anopheles stephensi
Test: Anopheles stephensi treated well plate contact test: knockdown and mortality
Type: in vivo
Settings: for mortality at 0.2 ppm / pest or weed control at 0.2 ppm / mortality at 2 ppm / pest or weed control at 2 ppm / mortality at 20 ppm / pest or weed control at 20 ppm / mortality at 200 ppm / pest or weed control at 200 ppm: Anopheles stephensi; for mortality at 0.2 ppm / pest or weed control at 0.2 ppm / mortality at 2 ppm / pest or weed control at 2 ppm / mortality at 20 ppm / pest or weed control at 20 ppm / mortality at 200 ppm / pest or weed control at 200 ppm / mortality % 24, without TFNA-AM / mortality % 48, without TFNA-AM / Knock Down, without TFNA-AM: without TFNA-AM; for pest or weed control at 0.2 ppm / pest or weed control at 2 ppm / pest or weed control at 20 ppm / pest or weed control at 200 ppm / Knock Down, with TFNA-AM / Knock Down, without TFNA-AM: knockdown after 1 hour; for pest or weed control at 0.2 ppm / pest or weed control at 2 ppm / pest or weed control at 20 ppm / pest or weed control at 200 ppm: read-out: Knock Down, without TFNA-AM
Method in brief: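 Well surfaces coated with ethanol solution of compound at a defined concentration, alone or with 2 ppm TFNA-AM, then dried. Five non-blood-fed 2–5-day-old adult females per well, fed 10% sucrose; knockdown scored at 1 hour, mortality at 24 and 48 hours, replicate means reported.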

[1] = test compound 0.2 ppm, after 24 hours, read-out: mortality % 24, without TFNA-AM
[2] = test compound 0.2 ppm, after 48 hours, read-out: mortality % 48, without TFNA-AM
[3] = test compound 2 ppm, after 24 hours, read-out: mortality % 24, without TFNA-AM
[4] = test compound 2 ppm, after 48 hours, read-out: mortality % 48, without TFNA-AM
[5] = test compound 20 ppm, after 24 hours, read-out: mortality % 24, without TFNA-AM
[6] = test compound 20 ppm, after 48 hours, read-out: mortality % 48, without TFNA-AM
[7] = test compound 200 ppm, after 24 hours, read-out: mortality % 24, without TFNA-AM
[8] = test compound 200 ppm, after 48 hours, read-out: mortality % 48, without TFNA-AM
[9] = test compound 200 ppm, adult females
[10] = test compound 0.2 ppm plus 2 ppm TFNA-AM, after 24 hours
[11] = test compound 0.2 ppm plus 2 ppm TFNA-AM, after 48 hours
[12] = test compound 0.2 ppm plus 2 ppm TFNA-AM
[13] = test compound 2 ppm plus 2 ppm TFNA-AM, after 24 hours
[14] = test compound 2 ppm plus 2 ppm TFNA-AM, after 48 hours
[15] = test compound 2 ppm plus 2 ppm TFNA-AM
[16] = test compound 20 ppm plus 2 ppm TFNA-AM, after 24 hours
[17] = test compound 20 ppm plus 2 ppm TFNA-AM, after 48 hours
[18] = test compound 20 ppm plus 2 ppm TFNA-AM
[19] = test compound 200 ppm plus 2 ppm TFNA-AM, after 24 hours
[20] = test compound 200 ppm plus 2 ppm TFNA-AM, after 48 hours
[21] = test compound 200 ppm plus 2 ppm TFNA-AM

| Compound | mortality at 0.2 ppm [1] | mortality at 0.2 ppm [2] | pest or weed control at 0.2 ppm (test compound 0.2 ppm) | mortality at 2 ppm [3] | mortality at 2 ppm [4] | pest or weed control at 2 ppm (test compound 2 ppm) | mortality at 20 ppm [5] | mortality at 20 ppm [6] | pest or weed control at 20 ppm (test compound 20 ppm) | mortality at 200 ppm [7] | mortality at 200 ppm [8] | mortality % 24, with TFNA-AM [10] | mortality % 48, with TFNA-AM [11] | Knock Down, with TFNA-AM [12] | Knock Down, with TFNA-AM [15] | mortality % 48, with TFNA-AM [17] | Knock Down, with TFNA-AM [18] | mortality % 24, with TFNA-AM [19] | mortality % 48, with TFNA-AM [20] | Knock Down, with TFNA-AM [21] | also measured |
| --- | --- | --- | --- | --- | --- | --- | --- | --- | --- | --- | --- | --- | --- | --- | --- | --- | --- | --- | --- | --- | --- |
| C/C=C(\C)C(=O)O[C@H]1C[C@@H](OC(C)=O)[C@@]2(C(=O)OC)CO[C@H]3[C@@H](O)[C@@](C)([C@]45O[C@@]4(C)[C@H]4C[C@@H]5O[C@@H]5OC=C[C@@]54O)[C@H]4[C@]1(CO[C@]4(O)C(=O)OC)[C@@H]32 [Azadirachtin] | 0% | 0% | 0% | 0% | 0% | 0% | 0% | 0% | 0% | 0% | 0% | 20% | 20% | 100% | 100% | 40% | 100% | 80% | 80% | 100% | pest or weed control at 200 ppm [9]: 0%; mortality % 24, with TFNA-AM [13]: 20%; mortality % 48, with TFNA-AM [14]: 20%; mortality % 24, with TFNA-AM [16]: 60% |
| CC(C)c1cc(Oc2ccccc2)cc(C(C)C)c1NC(=S)NC(C)(C)C [Diafenthiuron] | 0% | 20% | 60% | 0% | 20% | 100% | 0% | 0% | 100% | 100% | 100% | 60% | 0% | 100% | 100% | 80% | 100% | 100% | 100% | 100% | pest or weed control at 200 ppm [9]: 100%; mortality % 24, with TFNA-AM [13]: 100%; mortality % 48, with TFNA-AM [14]: 60%; mortality % 24, with TFNA-AM [16]: 100% |
| Emamectin benzoate |  |  |  |  |  |  |  |  |  |  |  | 30% | 20% | 100% | 100% | 100% | 100% | 100% | 100% | 100% | mortality % 24, without TFNA-AM (test compound 0.2 ppm, after 24 hours): 0%; mortality % 48, without TFNA-AM (test compound 0.2 ppm, after 48 hours): 0%; Knock Down, without TFNA-AM (test compound 0.2 ppm): 0%; mortality % 24, with TFNA-AM [13]: 60%; mortality % 48, with TFNA-AM [14]: 60%; mortality % 24, without TFNA-AM (test compound 2 ppm, after 24 hours): 0%; mortality % 48, without TFNA-AM (test compound 2 ppm, after 48 hours): 10%; Knock Down, without TFNA-AM (test compound 2 ppm): 0%; mortality % 24, with TFNA-AM [16]: 100%; mortality % 24, without TFNA-AM (test compound 20 ppm, after 24 hours): 40%; mortality % 48, without TFNA-AM (test compound 20 ppm, after 48 hours): 90%; Knock Down, without TFNA-AM (test compound 20 ppm): 0%; mortality % 24, without TFNA-AM (test compound 200 ppm, after 24 hours): 40%; mortality % 48, without TFNA-AM (test compound 200 ppm, after 48 hours): 90%; Knock Down, without TFNA-AM [9]: 0% |
| CO/C=C(/C(=O)OC)c1ccccc1COc1cc(C(F)(F)F)nc(OC(C)C)n1 [Fluacrypyrim] | 0% | 0% | 0% | 0% | 0% | 0% | 0% | 0% | 0% | 20% | 80% | 60% | 40% | 100% | 100% | 100% | 100% | 100% | 100% | 100% | pest or weed control at 200 ppm [9]: 0%; mortality % 48, with TFNA-AM [14]: 100%; mortality % 24, with TFNA-AM [16]: 100% |
| CC(c1ccc(C(F)(F)F)nc1)S(C)(=O)=NC#N (centres unmarked) [Sulfoxaflor] | 0% | 30% | 0% | 0% | 60% | 0% | 70% | 80% | 0% | 80% | 100% | 0% | 20% | 100% | 100% | 90% | 100% | 90% | 100% | 100% | pest or weed control at 200 ppm [9]: 20% |
| CC(COc1ccc(Oc2ccccc2)cc1)Oc1ccccn1 (centres unmarked) [Pyriproxyfen] | 0% | 0% | 0% | 0% | 0% | 0% | 0% | 0% | 0% | 0% | 0% | 60% | 60% | 100% | 100% | 60% | 100% | 80% | 80% | 100% | pest or weed control at 200 ppm [9]: 0%; mortality % 24, with TFNA-AM [13]: 60%; mortality % 48, with TFNA-AM [14]: 60%; mortality % 24, with TFNA-AM [16]: 60% |
